Test results as given in PubChem BioAssay (NCI).
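1) Cells in 96-well plates. 2) Compound, 48 h, 5 concentrations. 3) Linear interpolation between surrounding doses. 4) Unreached endpoint = highest concentration. GI50 is the concentration that inhibits growth by half. TGI marks complete inhibition of growth.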 Where a SMILES comes first, the peptide text is derived from it. The star is where a group is joined. Trt = c1ccc(C(c2ccccc2)(c2ccccc2)*)cc1; Cbz = O=C(OCc1ccccc1)*

system: CCRF-CEM leukemia; assay: DTP human tumour cell line panel, 48 h

For `CC1=C(N2CC2)C(=O)c2ccccc2C1=O`, which TGI is on record?
The TGI was 15.5 µM.

What does the source list for H-QIYKKYRTWYRKAWKVLGKV-NH2?
GI50: 4.14 µM; TGI: > 100 µM

With `O=S1(=O)c2ccccc2N=C(c2ccccc2Cl)CC1c1ccc(F)cc1` (configuration not stated) as the compound, how does the TGI read?
The TGI was 50.5 µM.

How did the TGI turn out when `CC1=CC(=O)NP(=O)(C23CC4CC(CC(C4)C2)C3)N1` (configuration not stated) was run?
The TGI was > 100 µM.

With `COc1cc(/C=N/NC(=O)c2ccccc2Nc2cccc(C(F)(F)F)c2)cc(OC)c1OC` as the compound, how does the GI50 read?
The GI50 was 1.03 µM.

And the TGI?
The TGI was 4.33 µM.

`O=c1[nH]cc(C(F)(C(F)(F)F)C(F)(F)F)c(=O)[nH]1` was tested. Which TGI did it give?
The TGI was > 100 µM.

How did the TGI turn out when `COc1ccc2c(c1)c1c3n2CCNN=C3CCC1` was run?
The TGI was > 100 µM.

`CC(C)N1C(C)[C@@H](c2ccccc2)O[P@]1(=O)CC1=CCCCC1` (some centres not stated) was tested. Which TGI did it give?
Its TGI is > 100 µM.

What does the source list for `CN=C(N)N/N=C(\C)c1ccc2c(c1)Cc1ccccc1-2`?
GI50: 1.73 µM; TGI: 7.14 µM

With `COC(=O)C(=O)C(C(=O)C(=O)Nc1cc(Cl)c(Cl)cc1Cl)c1nc2ccc([N+](=O)[O-])cc2[nH]c1=O` (configuration not stated) as the compound, how does the TGI read?
The TGI was > 100 µM.

Which TGI does the source give for `C/C(=N\NS(=O)(=O)c1ccc([N+](=O)[O-])cc1)c1ccc[n+]([O-])n1` here?
The TGI was > 30.1 µM.

With `S=c1c2ccccc2c(=S)n2n1CC=CC2` as the compound, how does the TGI read?
Its TGI is > 100 µM.

How did the TGI turn out when `CC(C)(C)Sc1nnc(SC(C)(C)C)c2c(=O)[nH]nc(SC(C)(C)C)c12` was run?
Its TGI is 28.1 µM.

Which GI50 does the source give for `COc1cc2c(cc1OCCCOc1ccc(-c3nc4ccc(N5CCN(C)CC5)cc4[nH]3)cc1)N=C[C@@H]1CCCN1C2=O` here?
Its GI50 is < 0.01 µM.

And the TGI?
Its TGI is 2.33 µM.

How did the TGI turn out when `CCCCNC1=C(C(=O)OCC)/C(=N/NC(=O)c2ccccc2O)CO1` was run?
Its TGI is > 100 µM.

Which TGI does the source give for `O=CCCCC(Sc1ccccc1)Sc1ccccc1` here?
Its TGI is 44.6 µM.

Which TGI does the source give for `COC(=O)/C(=N\Nc1nnc(C)n1N)C(C#N)c1ccccc1` (configuration not stated) here?
The TGI was > 100 µM.

`CNC(c1ccncc1)C(NC)c1ccncc1` (configuration not stated) was tested. Which TGI did it give?
Its TGI is > 100 µM.

`COc1ccc(C)cc1C1CCC(=O)O1` (configuration not stated) was tested. Which TGI did it give?
Its TGI is > 100 µM.

Which TGI does the source give for `Cc1ccc2nc(NC(=O)C(=O)CC(=O)c3cccc4ccccc34)sc2c1` here?
Its TGI is > 100 µM.

Which results are given for `COc1ccc(-c2nc(C(=O)c3ccccc3)n(CC(=O)c3ccc(Cl)cc3)c2-c2ccc(OC)cc2)cc1`?
GI50: > 100 µM; TGI: > 100 µM

For `O=C1CCC(=O)c2sccc2N1`, which TGI is on record?
The TGI was > 100 µM.

Which results are given for `COC(=O)C(CSC(c1ccccc1)(c1ccccc1)c1ccccc1)NC(=O)C(CC(N)=O)NC(=O)OCc1ccccc1` (stereo not drawn) (Cbz-Asn-Cys(Trt)-OMe; configuration not given here)?
GI50: 3.33 µM; TGI: 19.7 µM

How did the GI50 turn out when `COc1cccc2c1cc1c3c(cc4c(c32)OCO4)C(=O)N1` was run?
Its GI50 is 5.15 µM.

What about the TGI of the same compound?
The TGI was > 100 µM.

How did the TGI turn out when `CCCCCCCCCCCCCCCCCC(=O)NCC(COP(=O)(O)O)OCC` (configuration not stated) was run?
The TGI was > 100 µM.

For `CCCOC(=O)C1C2CCC(O2)C1C(=O)O` (configuration not stated), which TGI is on record?
Its TGI is > 100 µM.

`Cc1cc(Br)cc(C)c1NC(=O)C(=O)Nn1c(=S)[nH]c2ccccc2c1=O` was tested. Which TGI did it give?
The TGI was > 100 µM.

Which TGI does the source give for `Cn1nc(-c2ccccc2)c(C(=O)/C=C/c2ccc(Cl)cc2)c(N2CCCC2)c1=O` here?
Its TGI is 6.7 µM.

Which TGI does the source give for `O=C1C=Cc2ncccc2C1=O` here?
Its TGI is 15.2 µM.

`C/C(CC(=O)Nc1cccc([N+](=O)[O-])c1)=N\NC(=O)CC#N` was tested. Which TGI did it give?
Its TGI is > 100 µM.

Which results are given for `[CH3][Sn]1([CH3])[O]CC(COc2cc(Cl)c(Cl)cc2Cl)[O]1` (configuration not stated)?
GI50: 32.5 µM; TGI: > 100 µM

Which TGI does the source give for `CCc1cc(Cc2ccc(C)c(NC(=O)C(=O)C3C(=O)NC(=O)NC3=O)c2CC)cc(C)c1NC(=O)C(=O)C1C(=O)NC(=O)NC1=O` here?
The TGI was > 100 µM.

With `CC(=O)OC(=O)O/C=C\CCl` as the compound, how does the TGI read?
The TGI was > 100 µM.

Which TGI does the source give for `CC(=O)c1c2c(cc3c1CC1(C3)Cc3cc4c(c(C(=O)O)c3C1)CCC4)CCC2` (configuration not stated) here?
Its TGI is 69.7 µM.

With `Cc1ccc(/C=N/NS(=O)(=O)c2ccccc2)c(C)c1` as the compound, how does the TGI read?
The TGI was > 100 µM.

How did the TGI turn out when `NNC(=O)C(O)C(O)C(=O)NN` (configuration not stated) was run?
The TGI was > 100 µM.

With `C#CCOCn1cnc2ncnc(N)c21` as the compound, how does the TGI read?
Its TGI is > 100 µM.

For `Cc1noc(/N=C2\C=C(Nc3onc(C)c3C)C(=O)c3ccccc32)c1C`, which TGI is on record?
The TGI was > 100 µM.

For `CCCN1CCC=C(c2ccc(Nc3nc(Nc4ccccc4C(N)=O)c4cc[nH]c4n3)c(C)c2)C1`, which GI50 is on record?
The GI50 was 3.32 µM.

And the TGI?
Its TGI is > 25 µM.

system: DU-145 prostate; assay: DTP human tumour cell line panel, 48 h

How did the TGI turn out when `CC1=C(N2CC2)C(=O)c2ccccc2C1=O` was run?
Its TGI is 0.276 µM.

With H-QIYKKYRTWYRKAWKVLGKV-NH2 as the compound, how does the GI50 read?
Its GI50 is 3.54 µM.

What about the TGI of the same compound?
Its TGI is 11.8 µM.

`COc1cc(/C=N/NC(=O)c2ccccc2Nc2cccc(C(F)(F)F)c2)cc(OC)c1OC` was tested. Which GI50 did it give?
The GI50 was 2.61 µM.

What about the TGI of the same compound?
The TGI was 8.39 µM.

Which results are given for `CN=C(N)N/N=C(\C)c1ccc2c(c1)Cc1ccccc1-2`?
GI50: 1.12 µM; TGI: 3.17 µM

Which GI50 does the source give for `COc1cc2c(cc1OCCCOc1ccc(-c3nc4ccc(N5CCN(C)CC5)cc4[nH]3)cc1)N=C[C@@H]1CCCN1C2=O` here?
Its GI50 is < 0.01 µM.

And the TGI?
Its TGI is 6.98 µM.

With `COC(=O)/C(=N\Nc1nnc(C)n1N)C(C#N)c1ccccc1` (configuration not stated) as the compound, how does the TGI read?
Its TGI is > 100 µM.

Which TGI does the source give for `CNC(c1ccncc1)C(NC)c1ccncc1` (configuration not stated) here?
Its TGI is > 100 µM.

Which results are given for `COc1ccc(-c2nc(C(=O)c3ccccc3)n(CC(=O)c3ccc(Cl)cc3)c2-c2ccc(OC)cc2)cc1`?
GI50: > 100 µM; TGI: > 100 µM

Which results are given for `COC(=O)C(CSC(c1ccccc1)(c1ccccc1)c1ccccc1)NC(=O)C(CC(N)=O)NC(=O)OCc1ccccc1` (stereo not drawn) (Cbz-Asn-Cys(Trt)-OMe; configuration not given here)?
GI50: 2.68 µM; TGI: 8.61 µM

Which GI50 does the source give for `COc1cccc2c1cc1c3c(cc4c(c32)OCO4)C(=O)N1` here?
The GI50 was 8.79 µM.

What about the TGI of the same compound?
Its TGI is 66.4 µM.

How did the TGI turn out when `CCCOC(=O)C1C2CCC(O2)C1C(=O)O` (configuration not stated) was run?
The TGI was > 100 µM.

`CCCCCCCCCCSC(=N)N` was tested. Which GI50 did it give?
The GI50 was 6.63 µM.

What about the TGI of the same compound?
Its TGI is 19.3 µM.

`O=C(/C=C/c1ccccc1)CCC1C(=O)NC(=S)NC1=O` was tested. Which TGI did it give?
The TGI was > 100 µM.

`NNC(=O)C(O)C(O)C(=O)NN` (configuration not stated) was tested. Which TGI did it give?
Its TGI is > 100 µM.

What does the source list for `CCCN1CCC=C(c2ccc(Nc3nc(Nc4ccccc4C(N)=O)c4cc[nH]c4n3)c(C)c2)C1`?
GI50: 3.76 µM; TGI: > 25 µM

system: EKVX NSCLC; assay: DTP human tumour cell line panel, 48 h

For `CC1=C(N2CC2)C(=O)c2ccccc2C1=O`, which TGI is on record?
Its TGI is 0.744 µM.

With H-QIYKKYRTWYRKAWKVLGKV-NH2 as the compound, how does the GI50 read?
Its GI50 is 3.04 µM.

And the TGI?
Its TGI is 11.7 µM.

`O=S1(=O)c2ccccc2N=C(c2ccccc2Cl)CC1c1ccc(F)cc1` (configuration not stated) was tested. Which TGI did it give?
Its TGI is 36.2 µM.

`CC1=CC(=O)NP(=O)(C23CC4CC(CC(C4)C2)C3)N1` (configuration not stated) was tested. Which TGI did it give?
Its TGI is > 100 µM.

For `COc1cc(/C=N/NC(=O)c2ccccc2Nc2cccc(C(F)(F)F)c2)cc(OC)c1OC`, which GI50 is on record?
The GI50 was 3.08 µM.

And the TGI?
The TGI was 19.5 µM.

For `O=c1[nH]cc(C(F)(C(F)(F)F)C(F)(F)F)c(=O)[nH]1`, which TGI is on record?
Its TGI is > 100 µM.

Which TGI does the source give for `COc1ccc2c(c1)c1c3n2CCNN=C3CCC1` here?
Its TGI is > 100 µM.

`CC(=O)[C-](C(C)=O)c1ccccc1.CC(=O)[C-](C(C)=O)c1ccccc1.CC(=O)[C-](C(C)=O)c1ccccc1.[Cl-].[Zr+4]` was tested. Which GI50 did it give?
Its GI50 is > 100 µM.

What about the TGI of the same compound?
The TGI was > 100 µM.

Which TGI does the source give for `CC(C)N1C(C)[C@@H](c2ccccc2)O[P@]1(=O)CC1=CCCCC1` (some centres not stated) here?
Its TGI is > 100 µM.

`CN=C(N)N/N=C(\C)c1ccc2c(c1)Cc1ccccc1-2` was tested. Which GI50 did it give?
Its GI50 is 2.62 µM.

And the TGI?
The TGI was 13.9 µM.

`COC(=O)C(=O)C(C(=O)C(=O)Nc1cc(Cl)c(Cl)cc1Cl)c1nc2ccc([N+](=O)[O-])cc2[nH]c1=O` (configuration not stated) was tested. Which TGI did it give?
The TGI was > 100 µM.

`COc1ccc(NC(=O)C2C(=O)N(c3ccc(OC)cc3)C(=O)/C2=N\NC(N)=O)cc1` (configuration not stated) was tested. Which TGI did it give?
The TGI was > 100 µM.

Which TGI does the source give for `C/C(=N\NS(=O)(=O)c1ccc([N+](=O)[O-])cc1)c1ccc[n+]([O-])n1` here?
The TGI was 20.9 µM.

`S=c1c2ccccc2c(=S)n2n1CC=CC2` was tested. Which TGI did it give?
Its TGI is > 100 µM.

Which TGI does the source give for `CC(C)(C)Sc1nnc(SC(C)(C)C)c2c(=O)[nH]nc(SC(C)(C)C)c12` here?
The TGI was 24.6 µM.

What does the source list for `COc1cc2c(cc1OCCCOc1ccc(-c3nc4ccc(N5CCN(C)CC5)cc4[nH]3)cc1)N=C[C@@H]1CCCN1C2=O`?
GI50: < 0.01 µM; TGI: < 0.01 µM

How did the TGI turn out when `CCCCNC1=C(C(=O)OCC)/C(=N/NC(=O)c2ccccc2O)CO1` was run?
Its TGI is > 100 µM.

Which TGI does the source give for `O=CCCCC(Sc1ccccc1)Sc1ccccc1` here?
The TGI was > 100 µM.

For `COC(=O)/C(=N\Nc1nnc(C)n1N)C(C#N)c1ccccc1` (configuration not stated), which TGI is on record?
Its TGI is > 100 µM.

`CNC(c1ccncc1)C(NC)c1ccncc1` (configuration not stated) was tested. Which TGI did it give?
Its TGI is > 100 µM.

`COc1ccc(C)cc1C1CCC(=O)O1` (configuration not stated) was tested. Which TGI did it give?
Its TGI is > 100 µM.

With `Cc1ccc2nc(NC(=O)C(=O)CC(=O)c3cccc4ccccc34)sc2c1` as the compound, how does the TGI read?
Its TGI is > 100 µM.

What does the source list for `COc1ccc(-c2nc(C(=O)c3ccccc3)n(CC(=O)c3ccc(Cl)cc3)c2-c2ccc(OC)cc2)cc1`?
GI50: > 100 µM; TGI: > 100 µM

With `O=C1CCC(=O)c2sccc2N1` as the compound, how does the TGI read?
The TGI was > 100 µM.
